The record followed here is BindingDB's records for doi:10.7270/Q2TX3CSC (Vanderbilt Screening Center for GPCRs, Ion Channels and …, 2009).

The assay addresses T1, Solute carrier family 12 member 5 (Homo sapiens, UniProt Q9H2X9).
T1 sequence (Q9H2X9 whole entry): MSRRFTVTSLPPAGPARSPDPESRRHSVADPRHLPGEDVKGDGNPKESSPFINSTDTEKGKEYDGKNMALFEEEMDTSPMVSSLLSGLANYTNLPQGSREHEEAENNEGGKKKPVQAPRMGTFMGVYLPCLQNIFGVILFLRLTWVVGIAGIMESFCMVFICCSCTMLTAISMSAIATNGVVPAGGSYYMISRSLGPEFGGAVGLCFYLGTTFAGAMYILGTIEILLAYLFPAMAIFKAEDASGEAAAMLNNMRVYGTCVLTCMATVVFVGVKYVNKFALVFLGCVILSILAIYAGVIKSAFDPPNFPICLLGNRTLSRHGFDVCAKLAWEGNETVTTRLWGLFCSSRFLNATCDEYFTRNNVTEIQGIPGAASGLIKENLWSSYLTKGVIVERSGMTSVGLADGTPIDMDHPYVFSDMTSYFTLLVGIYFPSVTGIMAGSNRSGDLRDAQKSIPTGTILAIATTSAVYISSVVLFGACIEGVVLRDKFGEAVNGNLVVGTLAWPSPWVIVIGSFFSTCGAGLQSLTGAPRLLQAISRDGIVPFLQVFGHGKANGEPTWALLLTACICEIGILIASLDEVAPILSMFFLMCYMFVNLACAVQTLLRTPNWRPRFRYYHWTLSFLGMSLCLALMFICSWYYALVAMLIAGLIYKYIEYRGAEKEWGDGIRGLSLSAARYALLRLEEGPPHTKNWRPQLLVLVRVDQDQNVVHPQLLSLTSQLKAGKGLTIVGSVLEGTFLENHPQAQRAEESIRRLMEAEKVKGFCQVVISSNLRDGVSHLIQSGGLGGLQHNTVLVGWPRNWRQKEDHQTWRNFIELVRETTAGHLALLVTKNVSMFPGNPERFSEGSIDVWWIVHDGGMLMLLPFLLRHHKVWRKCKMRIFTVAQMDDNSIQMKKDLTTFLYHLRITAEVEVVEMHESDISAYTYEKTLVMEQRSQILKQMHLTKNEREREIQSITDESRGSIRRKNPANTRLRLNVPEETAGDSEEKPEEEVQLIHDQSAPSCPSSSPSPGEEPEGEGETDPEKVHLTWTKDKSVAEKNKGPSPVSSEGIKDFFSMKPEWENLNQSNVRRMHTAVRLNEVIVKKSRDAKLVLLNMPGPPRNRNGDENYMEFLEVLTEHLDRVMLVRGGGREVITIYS
The experiment in a line: KCC2 modulator potency by thallium flux, dose response, cell-based, HEK293 KCC2, FluoZin-2 fluorescence (AID 1736).

The mark [1] stands for this setting: inactive by the depositor's call.

On to `COc1cccc(CNC(=O)CSc2ccc(-c3cccs3)nn2)c1` [MLS000621194], for which it took 19.5 µM to reach a half-maximal effect (EC50).

`O=C(NCc1nc(-c2ccccc2)cs1)c1ccccc1` [MLS000661971] returned an EC50 of 6.49 µM.

Compound `CN(CC(=O)N1CCN(Cc2ccccc2)CC1)S(=O)(=O)c1cccc2nsnc12` [MLS000674627] returned an EC50 of 0.58 µM.

Compound `O=C(CN(c1ccc2c(c1)OCCO2)S(=O)(=O)c1ccccc1)N1CCN(Cc2ccccc2)CC1` [MLS000693333] came in with a 50% effective concentration (EC50) of 11.7 µM. This EC50 lies about 20-fold higher than the previous one. `O=C(Nc1ccc2oc(-c3ccccc3F)nc2c1)c1ccco1` [MLS000709180] returned an EC50 of 66.5 µM. Against the preceding compound, the EC50 is about 5.7-fold higher.

As for `O=C(c1ccccc1SCc1ccc(F)cc1)N1CCOCC1` [MLS000712999], the concentration giving a half-maximal response (EC50) worked out at 6.48 µM. As to `CC(/C=C1\SC(=S)N(C(C(=O)O)C(C)C)C1=O)=C\c1ccccc1` (centres undefined) [MLS000713304], the response under setting [1] was half-maximal at 2.68 µM (EC50). `O=C(NC1CCCC1)C(c1ccncc1)N(Cc1ccco1)C(=O)c1ccc(-c2ccccc2)[nH]1` (centres undefined) [MLS000718066] gave a half-maximal effective concentration (EC50) of 19.2 µM. Same read-out and setting: with `O=C(CSc1ccc(-c2ccccc2)nn1)Nc1ccc2c(c1)OCCO2` [MLS000724887] the figure was 3.48 µM; with `CC(=O)NCC1CCCN(c2nc3nonc3nc2N(C)Cc2ccccc2)C1` (centres undefined) [MLS000731683], 2.68 µM. In turn, `CCc1cc(C(=O)N2CCCC(CNC(=O)c3ccc(-c4ccccc4)cc3)C2)no1` (centres undefined) [MLS000731765] returned an EC50 of 3.2 µM.

Consider `CC(=O)NCCC(=O)N1CCCC(CNC(=O)c2ccc(-c3ccccc3)cc2)C1` (centres undefined) [MLS000733794], for which the response was half-maximal at 5 µM (EC50). As for `CSCCC(=O)N1CCCC(CNC(=O)c2ccc(-c3ccccc3)cc2)C1` (centres undefined) [MLS000733867], the midpoint of the response, the EC50, lay at 7.78 µM.

The compound `Cc1ccc(NC(=O)CCCSc2ccccc2)cc1S(=O)(=O)N1CCOCC1` [MLS000761060] had an EC50 of 6.79 µM. For `COc1ccccc1NC(=S)NNC1=c2cc(Br)ccc2=NC1=O` [MLS000778253], the EC50 amounted to 0.71 µM. For the compound `O=C(NNc1nc(-c2ccccc2)cs1)c1cccs1` [MLS000858987], the EC50 stood at 0.174 µM. On the same count and under the same terms, as for `CNc1ccc2oc(C[C@H]3O[C@@]4(CC[C@H]3C)O[C@H]([C@H](C)C(=O)c3ccc[nH]3)[C@H](C)C[C@H]4C)nc2c1C(=O)O` [MLS001056783], the figure is 11.3 µM; as for `Cc1csc(NC(=O)CSc2ccc(-c3ccccc3)nn2)n1` [N-(4-methyl-1,3-thiazol-2-yl)-2-(6-phenylpyridazin-3-yl)sulfanyl-ethanamide], 0.249 µM. Same read-out and setting: as for `O=C(NCCc1c[nH]c2ccccc12)c1cc(S(=O)(=O)N2CCCCC2)ccc1N1CCOCC1` [N-[2-(1H-indol-3-yl)ethyl]-2-morpholin-4-yl-5-piperidin-1-ylsulfonylbenzamide], the figure is 208 µM; as for `CC(C)(C)NC(=O)C(c1ccncc1)N(Cc1ccco1)C(=O)c1ccc(-c2ccccc2)[nH]1` (centres undefined) [N-[2-(tert-butylamino)-2-oxo-1-pyridin-4-ylethyl]-N-(furan-2-ylmethyl)-5-phenyl-1H-pyrrole-2-carboxamide], 7.02 µM.

With `CC(C)(C)NC(=O)C(c1cccs1)N(CC1CCCO1)C(=O)c1ccc(-c2ccccc2)[nH]1` (centres undefined) [N-[2-(tert-butylamino)-2-oxo-1-thiophen-2-ylethyl]-N-(2-oxolanylmethyl)-5-phenyl-1H-pyrrole-2-carboxamide], the EC50 was determined as 0.449 µM. `O=C(NN1C(=O)/C(=C/c2nc3ccccc3[nH]2)SC1=S)c1ccccc1` [N-[(5Z)-5-(1H-benzimidazol-2-ylmethylidene)-4-oxidanylidene-2-sulfanylidene-1,3-thiazolidin-3-yl]benzamide] gave an EC50 of 0.38 µM. As for `O=C(NN1C(=O)/C(=C/c2nc3ccccc3[nH]2)SC1=S)c1ccccc1Cl` [N-{5-[1-(1H-Benzoimidazol-2-yl)-meth-(Z)-ylidene]-4-oxo-2-thioxo-thiazolidin-3-yl}-2-chloro-benzamide], the EC50 turned out to be 0.0822 µM. `Cc1ccc2[nH]c(=O)c(CN(CCc3ccccc3)Cc3nnnn3CC3CCCO3)cc2c1` (centres undefined) [SMR000003177] gave a 50% effective concentration (EC50) of 4.26 µM.

With `O=C(CSc1nnc(-c2c[nH]c3ccccc23)o1)N1CCCCC1` [SMR000003748], the midpoint of the response, the EC50, lay at 1.81 µM. The same measure, in the same setting: with `c1ccc(-c2nnc(Sc3ncnc4c3cnn4-c3ccccc3)[nH]2)cc1` [SMR000019566] the figure was 5.95 µM; with `CC(C)NC(=S)NNC1=c2cc(C(C)C)ccc2=NC1=O` [SMR000242097], 5.13 µM. Still for that read-out and setting: as for `CN1/C(=C\C(=S)NC(=O)c2cccc(Br)c2)C(C)(C)c2ccccc21` [SMR000254682], the figure is 5.4 µM.

Consider `CC(=NNC(=S)Nc1c(C)cccc1C)c1cc2ccccc2o1` [SMR000260555], for which the EC50 is 4.46 µM. The same measure, in the same setting: with `Cc1nc(SCc2ccc(F)cc2)c([N+](=O)[O-])[nH]1` [SMR000271028] the figure was 6.28 µM; with `Cc1ccc(C2=CSC3=NNC4(CCCCC4)NN23)cc1` [SMR000306481], 2.52 µM; with `CN(C)S(=O)(=O)c1ccc(Cl)c(C(=O)Nc2nc3ccccc3[nH]2)c1` [SMR000370637], 2.11 µM. `O=C(O)CC/C(=C\c1cccc(NC(=O)c2ccccc2Cl)c1)c1nc2ccccc2s1` [SMR000371789] displayed an EC50 under setting [1] of 4.76 µM. As to `COc1cc(CC(C)N)c(OC)cc1I` (centres undefined) [[125I]2,5-dimethoxy-4-iodoamphetamine], the EC50 was found to be 290 µM.
